Test results: ChEMBL document CHEMBL4725222, “Advances in the Development of Phosphodiesterase-4 Inhibitors” (J Med Chem, 2020)

How the values were obtained:
[1] = biological target: T1, Phosphodiesterase 4 (Homo sapiens, UniProt P27815+Q08499+Q07343+Q08493); test: Inhibition of human U937 cell derived PDE4 preincubated for 15 mins followed by […] and cAMP addition and measured after 20 mins by liquid scintillation counter; assay type: protein assay
[2] = biological target: T2, 3',5'-cyclic-AMP phosphodiesterase 4B (Homo sapiens, UniProt Q07343); test: Inhibition of recombinant human PDE4B2 using cAMP as substrate preincubated for 15 mins followed by substrate addition and measured after 60 mins by Alphascreen assay
[3] = biological target: T1, Phosphodiesterase 4; test: Inhibition of PDE4 (unknown origin); assay type: protein assay
[4] = biological target: T1, Phosphodiesterase 4; test: Inhibition of human U-937 cell derived PDE4 using [3H]-cAMP or [3H]-cGMP as substrate incubated for 60 mins by scintillation proximity assay; assay type: protein assay
[5] = biological target: High affinity 3',5'-cyclic-AMP phosphodiesterase 7A (Homo sapiens, UniProt Q13946); test: Inhibition of human PDE7A at 2 uM relative to control
[6] = biological target: 3',5'-cyclic-AMP phosphodiesterase 4A (Homo sapiens, UniProt P27815); test: Inhibition of PDE4A (unknown origin) at 2 uM relative to control
[7] = biological target: T2, 3',5'-cyclic-AMP phosphodiesterase 4B; test: Inhibition of PDE4B (unknown origin) at 2 uM relative to control
[8] = biological target: T3, 3',5'-cyclic-AMP phosphodiesterase 4D (Homo sapiens, UniProt Q08499); test: Inhibition of PDE4D (unknown origin) at 2 uM relative to control
[9] = Inhibition of TNFalpha in mouse model of sepsis; assay type: functional
[10] = biological target: 3',5'-cyclic-AMP phosphodiesterase 4C (Homo sapiens, UniProt Q08493); test: Inhibition of N-terminal GST tagged full length human PDE4C1 expressed in baculovirus infected Sf9 cell expression system using cAMP as substrate incubated for 60 mins by time-resolved fluorescence competitive immunoassay
[11] = biological target: T2, 3',5'-cyclic-AMP phosphodiesterase 4B; test: Inhibition of N-terminal GST tagged full length human PDE4B2 expressed in baculovirus infected Sf9 cell expression system using cAMP as substrate incubated for 60 mins by time-resolved fluorescence competitive immunoassay
[12] = biological target: T3, 3',5'-cyclic-AMP phosphodiesterase 4D; test: Inhibition of PDE4D3 (unknown origin)
[13] = Inhibition of recombinant human PDE4B2B (1 to 564 residues) expressed in Saccharomyces cerevisiae using cAMP as substrate preincubated for 30 mins followed by cAMP addition and measured after 60 mins by luminescence method
[14] = biological target: T2, 3',5'-cyclic-AMP phosphodiesterase 4B; test: Inhibition of recombinant human PDE4B2 preincubated for 30 mins followed by [3H]cyclic AMP addition and measured after 20 mins by radiometric assay
[15] = biological target: T2, 3',5'-cyclic-AMP phosphodiesterase 4B; test: Inhibition of recombinant N-terminal GST-tagged full length human PDE4B1 expressed in baculovirus infected Sf9 cells […] as substrate by HPLC-MS method
[16] = biological target: T3, 3',5'-cyclic-AMP phosphodiesterase 4D; test: Inhibition of full length human PDE4D2 preincubated for 10 mins followed by cAMP addition and measured after 30 mins by fluorescence method
[17] = biological target: T2, 3',5'-cyclic-AMP phosphodiesterase 4B; test: Inhibition of full length human PDE4B2 expressed in baculovirus infected Sf9 cell expression system preincubated for 10 mins followed by cAMP addition and measured after 30 mins by fluorescence method
[18] = Inhibition of bovine aorta cytosolic PDE4 using cyclic AMP as substrate by liquid scintillation counting; set-up: species or system Bos taurus
[19] = biological target: T1, Phosphodiesterase 4; test: Inhibition of cytosolic PDE4 in human PMNL using [3H]cAMP as substrate by liquid scintillation counting method
[20] = Antiinflammatory activity in human nasal polyp cells assessed as reduction in TNFalpha release incubated for 30 mins followed by anti-IgE stimulation and measured after 18 hrs by ELISA; assay type: functional, cell-based; settings: Nasal polyp cell
[21] = biological target: T1, Phosphodiesterase 4; test: Inhibition of PDE4 in human U937 cell lysate using cAMP as substrate by LANCE assay; assay type: subcellular; settings: u-937
[22] = Inhibition of PDE4B2B (152 to 528 residues) (unknown origin) by liquid scintillation counting method; set-up: species or system Homo sapiens
[23] = biological target: T3, 3',5'-cyclic-AMP phosphodiesterase 4D; test: Inhibition of PDE4D (unknown origin)

T2 sequence (Q07343 whole entry): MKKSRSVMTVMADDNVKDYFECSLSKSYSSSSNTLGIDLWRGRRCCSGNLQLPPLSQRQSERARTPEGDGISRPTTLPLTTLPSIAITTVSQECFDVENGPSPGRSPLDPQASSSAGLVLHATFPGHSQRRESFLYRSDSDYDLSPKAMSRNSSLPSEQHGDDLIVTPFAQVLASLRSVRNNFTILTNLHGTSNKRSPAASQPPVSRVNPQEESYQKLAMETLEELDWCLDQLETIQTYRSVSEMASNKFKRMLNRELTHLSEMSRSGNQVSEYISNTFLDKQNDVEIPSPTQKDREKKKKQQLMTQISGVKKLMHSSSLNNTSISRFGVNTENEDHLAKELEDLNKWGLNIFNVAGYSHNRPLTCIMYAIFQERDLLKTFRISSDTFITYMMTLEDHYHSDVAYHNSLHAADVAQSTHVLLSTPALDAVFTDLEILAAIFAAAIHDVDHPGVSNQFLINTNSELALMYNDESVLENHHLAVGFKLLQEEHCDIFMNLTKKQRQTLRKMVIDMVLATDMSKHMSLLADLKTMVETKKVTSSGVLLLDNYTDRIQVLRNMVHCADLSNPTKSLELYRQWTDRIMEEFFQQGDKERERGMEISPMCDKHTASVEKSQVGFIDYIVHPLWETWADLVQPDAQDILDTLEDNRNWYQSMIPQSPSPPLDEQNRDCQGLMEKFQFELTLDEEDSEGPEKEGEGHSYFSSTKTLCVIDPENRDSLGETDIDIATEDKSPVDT
T3 sequence (Q08499 whole entry): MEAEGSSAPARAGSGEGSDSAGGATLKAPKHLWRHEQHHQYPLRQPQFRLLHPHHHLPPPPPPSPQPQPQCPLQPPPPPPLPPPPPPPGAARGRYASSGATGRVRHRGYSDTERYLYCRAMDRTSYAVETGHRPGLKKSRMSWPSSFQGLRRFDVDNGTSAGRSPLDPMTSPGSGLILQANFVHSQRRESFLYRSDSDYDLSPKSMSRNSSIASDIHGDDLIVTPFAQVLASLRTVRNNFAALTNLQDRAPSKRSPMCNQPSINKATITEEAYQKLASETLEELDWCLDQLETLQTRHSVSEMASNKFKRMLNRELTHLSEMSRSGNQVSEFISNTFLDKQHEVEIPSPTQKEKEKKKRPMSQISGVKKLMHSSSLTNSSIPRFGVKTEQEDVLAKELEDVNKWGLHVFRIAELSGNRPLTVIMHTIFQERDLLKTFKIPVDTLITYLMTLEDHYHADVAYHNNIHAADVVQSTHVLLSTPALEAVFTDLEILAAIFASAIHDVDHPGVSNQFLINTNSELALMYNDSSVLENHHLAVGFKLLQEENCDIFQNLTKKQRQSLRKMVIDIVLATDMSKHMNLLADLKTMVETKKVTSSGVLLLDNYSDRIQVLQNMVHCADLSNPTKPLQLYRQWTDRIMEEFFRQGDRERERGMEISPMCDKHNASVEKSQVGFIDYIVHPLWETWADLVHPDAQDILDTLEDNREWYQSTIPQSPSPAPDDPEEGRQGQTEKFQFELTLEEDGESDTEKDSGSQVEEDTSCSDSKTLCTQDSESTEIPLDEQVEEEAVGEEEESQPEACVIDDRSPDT
3',5'-cyclic-AMP phosphodiesterase 4C, sequence (Q08493 whole entry): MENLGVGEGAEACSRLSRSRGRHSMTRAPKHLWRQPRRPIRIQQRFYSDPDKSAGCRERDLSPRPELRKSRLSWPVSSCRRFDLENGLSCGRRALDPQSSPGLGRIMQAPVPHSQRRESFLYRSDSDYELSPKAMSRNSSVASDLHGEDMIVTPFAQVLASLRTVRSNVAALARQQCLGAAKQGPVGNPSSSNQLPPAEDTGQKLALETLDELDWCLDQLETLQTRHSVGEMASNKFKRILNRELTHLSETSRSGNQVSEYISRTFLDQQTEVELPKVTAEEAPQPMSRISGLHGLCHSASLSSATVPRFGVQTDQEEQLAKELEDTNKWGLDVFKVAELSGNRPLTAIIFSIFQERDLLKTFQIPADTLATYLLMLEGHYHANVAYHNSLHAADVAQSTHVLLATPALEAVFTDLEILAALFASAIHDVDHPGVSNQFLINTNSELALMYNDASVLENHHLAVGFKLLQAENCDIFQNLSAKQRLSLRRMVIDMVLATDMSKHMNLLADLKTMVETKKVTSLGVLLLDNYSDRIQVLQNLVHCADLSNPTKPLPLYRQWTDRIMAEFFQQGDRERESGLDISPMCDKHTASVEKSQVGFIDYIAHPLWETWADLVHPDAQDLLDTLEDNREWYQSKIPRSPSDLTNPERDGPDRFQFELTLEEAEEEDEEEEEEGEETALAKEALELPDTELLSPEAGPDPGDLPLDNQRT
3',5'-cyclic-AMP phosphodiesterase 4A, sequence (P27815 whole entry): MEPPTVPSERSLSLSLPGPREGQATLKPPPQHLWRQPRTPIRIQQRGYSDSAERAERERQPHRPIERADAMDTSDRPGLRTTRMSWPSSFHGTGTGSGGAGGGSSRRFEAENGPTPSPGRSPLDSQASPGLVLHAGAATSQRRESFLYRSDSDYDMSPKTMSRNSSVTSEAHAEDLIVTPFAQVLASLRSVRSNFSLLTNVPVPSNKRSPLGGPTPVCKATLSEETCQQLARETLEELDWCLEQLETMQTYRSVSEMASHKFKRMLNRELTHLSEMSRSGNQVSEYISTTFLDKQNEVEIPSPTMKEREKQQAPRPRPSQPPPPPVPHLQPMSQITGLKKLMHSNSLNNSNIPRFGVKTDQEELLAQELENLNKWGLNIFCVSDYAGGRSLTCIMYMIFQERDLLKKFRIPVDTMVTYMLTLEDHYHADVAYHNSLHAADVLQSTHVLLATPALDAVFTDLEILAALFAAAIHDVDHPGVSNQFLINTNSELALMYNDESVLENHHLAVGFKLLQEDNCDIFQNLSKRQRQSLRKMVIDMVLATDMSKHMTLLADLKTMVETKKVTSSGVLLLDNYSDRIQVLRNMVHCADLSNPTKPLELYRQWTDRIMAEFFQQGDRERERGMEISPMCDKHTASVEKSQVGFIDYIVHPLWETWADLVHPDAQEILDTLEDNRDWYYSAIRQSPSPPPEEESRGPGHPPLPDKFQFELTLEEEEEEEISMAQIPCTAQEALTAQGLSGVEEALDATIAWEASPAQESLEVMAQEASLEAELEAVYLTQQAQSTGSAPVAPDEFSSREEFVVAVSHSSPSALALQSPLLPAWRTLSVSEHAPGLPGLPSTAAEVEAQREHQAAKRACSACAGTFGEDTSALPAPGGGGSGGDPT
High affinity 3',5'-cyclic-AMP phosphodiesterase 7A, sequence (Q13946 whole entry): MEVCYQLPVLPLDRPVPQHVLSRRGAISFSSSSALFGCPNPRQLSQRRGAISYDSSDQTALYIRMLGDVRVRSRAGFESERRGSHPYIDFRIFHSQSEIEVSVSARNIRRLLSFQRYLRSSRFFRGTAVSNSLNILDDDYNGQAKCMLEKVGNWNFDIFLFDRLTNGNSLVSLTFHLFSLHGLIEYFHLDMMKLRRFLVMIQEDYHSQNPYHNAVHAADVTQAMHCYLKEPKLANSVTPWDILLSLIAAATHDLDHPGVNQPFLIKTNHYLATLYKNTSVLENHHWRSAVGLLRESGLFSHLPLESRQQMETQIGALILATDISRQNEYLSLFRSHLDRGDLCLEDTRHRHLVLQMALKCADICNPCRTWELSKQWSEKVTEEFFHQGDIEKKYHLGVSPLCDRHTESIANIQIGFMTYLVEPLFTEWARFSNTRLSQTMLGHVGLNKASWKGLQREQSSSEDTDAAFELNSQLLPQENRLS

## COc1ccc(-c2ccc3nc(N)nc(N4CCN(C(=O)Nc5ccc(Cl)cc5)CC4)c3n2)cc1OC
[1]
  IC50: 0.4 nM

## COc1ccc(-c2nc(C(=O)NCc3coc4ccccc34)c([C@@H](C)N)o2)c2ccc(C(F)(F)F)nc12
[2]
  IC50: 0.01 nM

## COc1ccc(C2=NN(C3CCN(S(=O)(=O)c4ccccc4C)CC3)C(=O)C(C)(C)C2)cc1OC
[3]
  pIC50: 9.45

## CNc1nc(-c2cccc(NC(=O)c3ccc(C(=O)OC)cc3)c2)c2cc(OC)c(OC)cc2n1 [LOTAMILAST]
[4]
  IC50: 2.8 nM

## Cc1c(C(=O)Nc2ccc(F)cc2F)sc2ncnc(N3CCN(C)CC3)c12
[5]
  inhibition: 98%
[6]
  inhibition: 64%
[7]
  inhibition: 64%
[8]
  inhibition: 64%

## O=C(NC1CC1)c1cn(-c2cccc(-c3ccc([C@@H]4C[C@H]4C(=O)O)c(F)c3)c2)c2ncccc2c1=O
[3]
  IC50: 0.6 nM

## NS(=O)(=O)c1cccc(-c2c(-c3ccccc3)nc(C(F)(F)F)nc2N2CCOCC2)c1
[3]
  IC50: 7 nM
[9]
  EC50: 0.01 mg/kg

## CCOc1cc([C@H](CS(C)(=O)=O)N2C(=O)c3cccc(NC(=O)OCCOCCOCCOCCOCCOCCOC)c3C2=O)ccc1OC
[10]
  IC50: 3 nM
[11]
  IC50: 3 nM

## COc1ccc([C@H]2CNC(=O)[C@H](Cc3cccc(C)c3)C2)cc1OC1CCCC1 [HT-0712]
[12]
  IC50: 150 nM

## O=C(Nc1c(Cl)c[n+]([O-])cc1Cl)c1ccc(OC(F)F)c2oc3ccncc3c12
[3]
  IC50: 3 nM

## CCOc1ccc(-c2nc(-c3cccc(C(=O)O)n3)cs2)cc1OCC [TETOMILAST]
[3]
  IC50: 74 nM

## CCOC(=O)c1cnc2c(cnn2CC)c1NN=C(C)C [ETAZOLATE]
[12]
  IC50: 390 nM

## CCn1ncc2c(NC3CCOCC3)c(-c3nnc(Cc4sc(C)nc4C)o3)cnc21
[13]
  pIC50: 8.8

## O=C(N[C@H]1CC[C@@H](C2C(=O)c3cc(F)cnc3N(C3CCSCC3)C2=O)CC1)c1cn2cc(F)ccc2n1 (some centres not stated)
[14]
  IC50: 0.126 nM

## O=C(O/C(=C\c1c(Cl)cncc1Cl)c1ccc(OC(F)F)c(OCC2CC2)c1)c1ccc(OC(F)F)c(OCC2CC2)c1
[3]
  IC50: 0.9 nM

## Cn1nc(C(=O)NC2CCC(NC(=O)c3cc(F)cnc3Oc3cccc(-c4ccc(CCCN5CCNCC5)cc4)c3)CC2)cc1C(F)(F)F (configuration not stated)
[14]
  IC50: 0.01 nM

## CCOc1cc([C@H](CS(C)(=O)=O)N2C(=O)c3cccc(NC(=O)OCCOCCOCCOC)c3C2=O)ccc1OC
[10]
  IC50: 3 nM
[11]
  IC50: 3 nM

## CCOc1cc(C(CS(C)(=O)=O)N2C(=O)c3csc(NC(C)=O)c3C2=O)ccc1OC (configuration not stated)
[15]
  IC50: 26 nM

## CCOc1cc([C@H](CS(C)(=O)=O)N2C(=O)c3cccc(NC(=O)OCCOCCOCCOCCOCCOC)c3C2=O)ccc1OC
[10]
  IC50: 3 nM
[11]
  IC50: 3 nM

## CCOc1cc([C@H](CS(C)(=O)=O)N2C(=O)c3cccc(NC(=O)OCCOCCOCCOCCOC)c3C2=O)ccc1OC
[10]
  IC50: 3 nM
[11]
  IC50: 3 nM

## COc1ccc(-c2nc3c(c(Nc4ccc(CC(=O)O)cc4)n2)SCCC3)cc1F
[16]
  IC50: 440 nM
[17]
  IC50: 5.5 nM

## CCOc1cc2c(cc1OCC)C(c1ccc(CCCN3CCN(c4ccc(Cl)cc4)CC3)cc1)=NCC(=O)N2
[18]
  IC50: 40 nM

## CCOc1cc([C@H](CS(C)(=O)=O)N2C(=O)c3cccc(NC(=O)OCCOCCOCCOCCOCCOCCOCCOC)c3C2=O)ccc1OC
[10]
  IC50: 3 nM
[11]
  IC50: 3 nM

## O=C(C(=O)c1cn(Cc2ccc(F)cc2)c2ccc(O)cc12)c1c(Cl)cncc1Cl
[19]
  IC50: 9.7 nM
[20]
  EC50: 110 nM

## CS(=O)(=O)Nc1ccc(C(=O)O[C@@H](Cc2c(Cl)c[n+]([O-])cc2Cl)c2ccc(OC(F)F)c(OCC3CC3)c2)cc1OCC1CC1
[21]
  IC50: 0.026 nM

## CC(C)CC(=O)c1ccc(OC(F)F)c(OC2CCOC2)c1 (configuration not stated)
[22]
  IC50: 20 nM

## O=C(Nc1c(Cl)cncc1Cl)C(=O)c1cn(Cc2ccc(F)cc2)c2ncccc12 [ELBIMILAST]
[3]
  IC50: 3 nM

## CC1CN(C(=O)CO/N=C/c2ccc(OC(F)F)c(OC3CCCC3)c2)CC(C)O1 (configuration not stated)
[23]
  IC50: 800 nM

## CCOc1cc([C@H](CS(C)(=O)=O)N2C(=O)c3cccc(NC(=O)OCCOCCOCCOCCOCCOCCOCCOCCOC)c3C2=O)ccc1OC
[10]
  IC50: 3 nM
[11]
  IC50: 3 nM

## COc1ccc(C(Cc2c(Cl)cncc2Cl)OC(=O)c2ccc(OC(F)F)c(OCC3CC3)c2)cc1OC (configuration not stated)
[3]
  IC50: 0.2 nM
